Read-outs that look alike come from different tables or passages of the source.
Tests used:
[1] = DPPH radical scavenging assay; assay type: biochemical
Protocol: Likewise, L-ASA, the 1,2,3-triazole L-ASA derivatives with free C2-OH and C3-OH groups were expected to be potent antioxidants. Therefore, they were tested as radical scavengers by reaction with the stable free radical 2,2-diphenyl-1-picrylhydrazyl (DPPH^•).
Antioxidant capacity of selected compounds was assessed by 2,2-diphenyl-1-picrylhydrazyl assay (DPPH, Sigma Aldrich, Darmstadt, Germany), in which the antioxidant activity of compounds is measured by the reaction between a stable radical of 1,1-diphenyl-2-picylhydrazil (DPPH^•) and a selected compound according to the manufacturer recommendations. Briefly, compounds 4b–4e, 4f–4h, 4k, 4l, 4o, 4p–4s, 4t, 4v, 7c–7f, 7i–7n, 7q, 7p, and 7o were tested at 0.06, 0.12, 0.18, 0.23, 0.25, and 0.28 mM. L-ascorbic acid was used as the reference compound. Absorbance was measured 5 and 10 min after incubation of the compounds with the DPPH reagent. The reduction of DPPH with selected compounds was monitored by measuring the absorbance at a wavelength of 517 nm on the monochromator (Infinite M200 PRO, TECAN, Männedorf, Switzerland).

[2] = test system: A549 (lung adenocarcinoma); test: MTT proliferation assay, A549; assay type: cell-based; conditions: Homo sapiens, 72 h
Protocol: (§1) Human tumor cell lines HeLa (cervical carcinoma), SW620 (colorectal adenocarcinoma, metastatic), A549 (lung adenocarcinoma), MCF−7 (breast adenocarcinoma), CFPAC-1 (pancreatic adenocarcinoma, metastatic), HCT-116 (colorectal carcinoma), and HepG2 (hepatocellular carcinoma), and normal cell lines HFF-1 (foreskin fibroblasts) and WI-38 (immortalized human lung fibroblast), were from the US American Type Culture Collection (ATCC, Manassas, VA, USA). Cells were cultured in a liquid nutrient medium (Dulbecco’s Modified Eagle Medium, LONZA, Basel, Switzerland) supplemented with 10% fetal bovine serum (FBS, Gibco, Grand Island, NY, USA), 2 mM L-glutamine (GIBCO, Grand Island, NY, USA), 100 μg/mL penicillin, and 100 μg/mL streptomycin (LONZA, Basel, Switzerland), in an incubator (NÜVE, Ankara, Turkey), at a humid atmosphere with 5% CO2 at 37 °C. Trypsin/EDTA Solution (Lonza, Basel, Switzerland), was used for cell passaging and cell detachment.
(§2) Adherent cells were seeded on 96 well microtiter plates (Falcon, New York, NY, USA) at a seeding density of 5000 cells per well, added in 150 μL of cell suspension in a nutrient medium. 24 h after seeding, cells were treated with compound 4b–4g, 4i, 4k–4t, 4v, 7c–7g, and 7i–7q dilutions in the range of 0.01 μM to 100 μM. L-ascoric acid (Sigma Aldrich, Darmstadt, Germany) and Carboxyamidotriazole (Sigma Aldrich, Darmstadt, Germany) were used as control compounds. Incubation of the cells with the compounds were performed for 72 h in a 5% CO2, in humid atmosphere at 37 °C. After incubation, nutrient medium was removed and 40 μL of the MTT reagent ([…]-2,5-diphenyltetrazole bromide (Invitrogen, Carlsbad, CA, USA) was added to each well. 3 h after incubation, 160 μL of DMSO (VWR CHEMICALS, Radnor, PA, USA) were added to each well to dissolve the crystals of purple formazane. The absorbance was measured at 570 nm (TECAN SUNRISE Microtiter plate reader (Männedorf, Switzerland). The experimentally measured optical densities (OD) were converted to the PG (percentage of growth), using the formulas according to the protocol assumed by NIH (National Institute of Health). The IC50 values (concentration causing 50% cell growth inhibition) for each compound were calculated by regression analysis of the survival count curve of the concentrations of the tested compounds. The results were processed in Excel 2010 (Microsoft, Redmond, WA, USA).

[3] = test system: CFPAC-1 (ductal pancreatic adenocarcinoma); test: MTT proliferation assay, CFPAC-1; assay type: cell-based; conditions: Homo sapiens, 72 h
Protocol: as §1, §2

[4] = test system: HCT-116 (colorectal carcinoma); test: MTT proliferation assay, HCT-116; assay type: cell-based; conditions: Homo sapiens, 72 h
Protocol: as §1, §2

[5] = test system: HeLa (cervical carcinoma); test: MTT proliferation assay, HeLa; assay type: cell-based; conditions: Homo sapiens, 72 h
Protocol: as §1, §2

[6] = test system: HepG2 (hepatocellular carcinoma); test: MTT proliferation assay, HepG2; assay type: cell-based; conditions: Homo sapiens, 72 h
Protocol: as §1, §2

[7] = test system: MCF-7 (breast adenocarcinoma); test: MTT proliferation assay, MCF-7; assay type: cell-based, Human; conditions: Homo sapiens, MCF7; 72 h, MTT
Protocol: as §1, §2

[8] = test system: SW620 (colorectal adenocarcinoma, metastatic); test: MTT proliferation assay, SW620; assay type: cell-based; conditions: Homo sapiens, SW-620, 72 h
Protocol: as §1, §2

WI-38 (lung fibroblasts) = test: MTT proliferation assay, WI-38; assay type: cell-based; conditions: Homo sapiens, 72 h, normal lung fibroblasts
Protocol: as §1, §2

[9] = test system: HFF-1 (foreskin fibroblasts); test: MTT proliferation assay, HFF-1; assay type: cell-based; conditions: Homo sapiens, 72 h, normal foreskin fibroblasts
Protocol: as §1, §2

[10] = 5 min treatment, read-out: IC50 of DPPH• inhibition, Treatm. 5 min
[11] = 10 min treatment, read-out: IC50 of DPPH• inhibition, Treatm. 10 min

CCCCCc1ccc(-c2cn(C[C@H](O)[C@H]3OC(=O)C(O)=C3O)nn2)cc1 [Compound 4k, 6-deoxy-6-[4-(4-pentylphenyl)-1,2,3-triazol-1-yl]-L-ascorbic acid]
IC50 [1, 10]: 210 ± 70 µM
IC50 [1, 11]: 130 ± 40 µM
IC50 [2]: > 100 µM
IC50 [3]: > 100 µM
IC50 [4]: > 100 µM
IC50 [5]: > 100 µM
IC50 [6]: > 100 µM
IC50 [7]: 26.9 µM
IC50 [8]: > 100 µM
IC50 (WI-38 (lung fibroblasts)): > 100 µM
IC50 [9]: 0.21 µM
melting point: 237 to 239 °C

O=C1O[C@H]([C@@H](O)Cn2cc(C3CC3)nn2)C(O)=C1O [Compound 4l, 6-[4-cyclopropyl-1,2,3-triazol-1-yl]-6-deoxy-L-ascorbic acid]
IC50 [1, 10]: 170 ± 160 µM
IC50 [1, 11]: 160 ± 140 µM
IC50 [2]: > 100 µM
IC50 [3]: > 100 µM
IC50 [4]: > 100 µM
IC50 [5]: > 100 µM
IC50 [6]: > 100 µM
IC50 [7]: > 100 µM
IC50 [8]: > 100 µM
IC50 (WI-38 (lung fibroblasts)): > 100 µM
IC50 [9]: 4.61 µM
melting point: 119 to 121 °C

CCCCc1cn(C[C@H](O)[C@H]2OC(=O)C(O)=C2O)nn1 [Compound 4m, 6-(4-butyl-1,2,3-triazol-1-yl)-6-deoxy-L-ascorbic acid]
IC50 [1, 10]: > 280 µM
IC50 [1, 11]: > 280 µM
IC50 [2]: > 100 µM
IC50 [3]: > 100 µM
IC50 [4]: > 100 µM
IC50 [5]: > 100 µM
IC50 [6]: > 100 µM
IC50 [7]: > 100 µM
IC50 [8]: > 100 µM
IC50 (WI-38 (lung fibroblasts)): > 100 µM
IC50 [9]: 0.12 µM
melting point: 98 to 99 °C

CCCCCCCCCCc1cn(C[C@H](O)[C@H]2OC(=O)C(O)=C2O)nn1 [Compound 4n, 6-(4-decyl-1,2,3-triazol-1-yl)-6-deoxy-L-ascorbic acid]
IC50 [1, 10]: 150 ± 60 µM
IC50 [1, 11]: 100 ± 30 µM
IC50 [2]: > 100 µM
IC50 [3]: > 100 µM
IC50 [4]: > 100 µM
IC50 [5]: > 100 µM
IC50 [6]: > 100 µM
IC50 [7]: > 100 µM
IC50 [8]: > 100 µM
IC50 (WI-38 (lung fibroblasts)): > 100 µM
IC50 [9]: 0.06 µM
melting point: 140 to 142 °C

CC(C)(C)c1cn(C[C@H](O)[C@H]2OC(=O)C(O)=C2O)nn1 [Compound 4o, 6-[4-(tert-butyl)-1,2,3-triazol-1-yl]-6-deoxy-L-ascorbic acid]
IC50 [1, 10]: 240 ± 28 µM
IC50 [1, 11]: 240 ± 40 µM
IC50 [2]: > 100 µM
IC50 [3]: > 100 µM
IC50 [4]: > 100 µM
IC50 [5]: 93 µM
IC50 [6]: > 100 µM
IC50 [7]: > 100 µM
IC50 [8]: > 100 µM
IC50 (WI-38 (lung fibroblasts)): 95 µM
IC50 [9]: < 0.01 µM
melting point: ≥ 250 °C

O=C1O[C@H]([C@@H](O)Cn2cc(CCCCl)nn2)C(O)=C1O [Compound 4p, 6-[4-(3-chloropropyl)-1,2,3-triazol-1-yl]-6-deoxy-L-ascorbic acid]
IC50 [1, 10]: 150 ± 60 µM
IC50 [1, 11]: 150 ± 60 µM
IC50 [2]: > 100 µM
IC50 [3]: > 100 µM
IC50 [4]: > 100 µM
IC50 [5]: 48 µM
IC50 [6]: > 100 µM
IC50 [7]: 99.6 µM
IC50 [8]: > 100 µM
IC50 (WI-38 (lung fibroblasts)): 52.6 µM
IC50 [9]: 6.05 µM
melting point: 86 to 88 °C

O=C1O[C@H]([C@@H](O)Cn2cc(CCO)nn2)C(O)=C1O [Compound 4q, 6-deoxy-6-(4-(2-hydroxyethyl)-1,2,3-triazol-1-yl)-L-ascorbic acid]
IC50 [1, 10]: 240 ± 20 µM
IC50 [1, 11]: 230 µM
IC50 [2]: > 100 µM
IC50 [3]: > 100 µM
IC50 [4]: 63.3 µM
IC50 [5]: > 100 µM
IC50 [6]: > 100 µM
IC50 [7]: > 100 µM
IC50 [8]: > 100 µM
IC50 (WI-38 (lung fibroblasts)): > 100 µM
IC50 [9]: > 100 µM
melting point: 184 to 186 °C

Cc1ccc(S(=O)(=O)NCc2cn(C[C@H](O)[C@H]3OC(=O)C(O)=C3O)nn2)cc1 [Compound 4r]
IC50 [1, 10]: 250 µM
IC50 [1, 11]: 270 ± 20 µM
IC50 [2]: > 100 µM
IC50 [3]: > 100 µM
IC50 [4]: > 100 µM
IC50 [5]: > 100 µM
IC50 [6]: > 100 µM
IC50 [7]: > 100 µM
IC50 [8]: > 100 µM
IC50 (WI-38 (lung fibroblasts)): > 100 µM
IC50 [9]: > 100 µM
melting point: 125 to 127 °C

O=C1O[C@H]([C@@H](O)Cn2cc(CNS(=O)(=O)c3ccc(Cl)cc3)nn2)C(O)=C1O [Compound 4s]
IC50 [1, 10]: 270 ± 20 µM
IC50 [1, 11]: 250 µM
IC50 [2]: > 100 µM
IC50 [3]: > 100 µM
IC50 [4]: > 100 µM
IC50 [5]: > 100 µM
IC50 [6]: > 100 µM
IC50 [7]: > 100 µM
IC50 [8]: > 100 µM
IC50 (WI-38 (lung fibroblasts)): > 100 µM
IC50 [9]: 0.4 µM
melting point: 132 to 134 °C

O=C1O[C@H]([C@@H](O)Cn2cc(CNS(=O)(=O)c3ccc(F)cc3Cl)nn2)C(O)=C1O [Compound 4t]
IC50 [1, 10]: 220 ± 80 µM
IC50 [1, 11]: 120 ± 20 µM
IC50 [2]: > 100 µM
IC50 [3]: > 100 µM
IC50 [4]: > 100 µM
IC50 [5]: > 100 µM
IC50 [6]: > 100 µM
IC50 [7]: > 100 µM
IC50 [8]: > 100 µM
IC50 (WI-38 (lung fibroblasts)): > 100 µM
IC50 [9]: > 100 µM
melting point: 198 to 200 °C

Source: paper PMC6801448, “The Antioxidant and Antiproliferative Activities of 1,2,3-Triazolyl-L-Ascorbic Acid Derivatives” (International Journal of Molecular Sciences, 2019)
